Results taken from patent US6440710B1, “Antibody-catalyzed deuteration, tritiation, dedeuteration or detritiation of carbonyl compounds” (The Scripps Research Institute, priority 1998, dated 2002).

System: antibody 38C2
Test: antibody 38C2-catalyzed deuterium exchange (deuteration) of ketones and aldehydes in D2O, kinetics by GCMS or 1H-NMR
Type: biochemical
Details: for Km / kcat: 38C2-catalyzed deuteration, D2O, pD 7.4, 25° C.; for Km: Lineweaver-Burk analysis (GCMS); for kcat: per exchange of one hydrogen atom; for kcat/kun: rate enhancement over uncatalyzed background reaction (followed 5 months at 25° C.)
Protocol: Series of reactions were carried out in a 0.1 ml solution containing the appropriate concentration of the carbonyl substrate and antibody 38C2(1.33 μM in the case of cycloheptanone and heptanal, 2.67 μM in the case of 2-heptanone) which was previously dialyzed three times against 0.1 M NaCl in D2O. The reaction mixtures were kept at 25° C. for 10 minutes and then quenched with dichloromethane. The organic layer was separated and analyzed by GCMS (Chemical Ionization) where the different isotopic masses were monitored and integrated. All kinetic parameters are calculated per exchange of one deuterium atom. No background reactions could be detected under these conditions.
The issue of kinetic analyses of these catalytic reactions and structure determination of the deuterium labeled products is not trivial. The common chromatographic methods, such as HPLC, used to monitor protein-catalyzed organic reactions that are carried out at very low concentrations, are not applicable to isotope exchange reactions. Work at low concentrations, at the range of the antibody's Km, is required in order to establish the kinetic parameters of the antibody catalyzed reaction. Consequently, alternative methods such as mass spectrometry and NMR are required. For NMR spectroscopy, deuterated substrates were used and the exchange of ^2H and ^1H was followed by ^1H-NMR. This allows for monitoring the reaction in real time in the presence of antibody and buffer solution. The experiments were carried out in relatively high substrate concentrations, due to the limited sensitivity of the instrument. Most experiments employed deuterated acetonitrile as an internal standard that enables one to quantify the results. It will be appreciated that the employment of NMR techniques is valuable not only for kinetic studies but also for determining the product's stereochemistry as well as the regio, chemo- and enantioselectivity of the reaction.
All reactions were carried out in D2O under neutral conditions (pD 7.4) in the presence of catalytic amounts of the commercially available 38C2 antibody.
The exchange reaction was followed either by mass spectrometry (GCMS.) or by ^1H-NMR. The high sensitivity of the GCMS method with respect to substrate concentration allowed for determination of the kinetic parameters of these reactions (Km and kcat) using Lineweaver-Burk analysis. These measurements are presented in Table 1 hereinunder and FIG. 5.
Although all NMR measurements were carried out under substrate saturation conditions (allowing only for determination of Vmax and kcat, Table 1, above), as further detailed hereinunder, this method provided useful information about the regioselectivity of the reaction in the cases of non-symmetrical ketones and chemoselectivity with polyfunctional carbonyl compounds.
14. The rate of the uncatalyzed reaction was determined by averaging the results of five experiments for each substrate. All reaction mixtures, containing the appropriate substrate (200 μM) and NaCl (0.1 M) in D2O (0.1 mL), were monitored by GCMS-CI. Approximately 1-2% yield was observed after 5 months at 25° C.

Row | SMILES | Km [mM] | kcat [s⁻¹] | also measured
1 | CCCCCC(C)=O [2-Heptanone, 3, 2-Heptanone] | 16 | 0.0583 | kcat/kun: 6.94 × 10^7
2 | CC(=O)C(C)(C)C [3,3-dimethylbutan-2-one] | – | – | reactivity in the 38C2-catalyzed deuterium exchange reaction (data not shown): absolute inertness
3 | CC(C)=O [Acetone, 1, Acetone] | – | 0.0433 | –
4 | CCC(C)=O [Butanone, 2, Butanone] | – | 0.0517 | –
5 | O=C1CCCCCC1 [Cycloheptanone, 10, Cycloheptanone] | 4.6 | 0.232 | kcat/kun: 1.1 × 10^8
6 | O=C1CCCCC1 [Cyclohexanone, 9, Cyclohexanone] | 5.2 | 3.233 | kcat/kun: 5.9 × 10^8
7 | O=C1CCCC1 [Cyclopentanone, 8, Cyclopentanone] | – | 0.102 | –
8 | CCCCCCCCCC=O [Decanal, 6, Decanal] | 0.68 | 0.0667 | –
9 | CCOC(=O)CCCC(C)=O [Ethyl 5-oxohexanoate, 7, Ethyl 5-oxohexanoate] | – | 0.013 | –
10 | CCCCCCC=O [Heptanal, 5, Heptanal] | 3.5 | 0.753 | –
11 | CCCCC=O [Valeraldehyde, 4, Valeraldehyde] | – | 0.0567 | –
12 | CC(=O)CC(C)=O [acetylacetone, reference compound] | – | – | inhibition of the 38C2-catalyzed deuterium exchange reaction (all cases studied by GCMS): effectively inhibited
